Data as given in patent US20160271094A1, “Laquinimod Combination Therapy For Treatment Of Multiple Sclerosis” (priority 2013, published 2016).
Where a name gives a salt, the structure may show the parent alone.

Columns and labels:
Format in all cases: in vivo, mouse (C57BL/6)
MOG induced EAE [1] = assay: Example 1B: laquinimod in combination with DMF in MOG-induced EAE; conditions: Day 1 to 30; for % Inhibition 2: according to MMS; for % Inhibition 2 / % Inhibition 1 / % Inhibition 3: vs vehicle; for % Inhibition 1: according to incidence; for % Inhibition 3: activity according to GMS; for GMS value: group mean score; for MMS value: mean maximal score
MOG-induced EAE = assay: Example 1A: laquinimod alone or in combination with DMF in MOG-induced EAE (present tense)
MOG induced EAE [2] = assay: Example 1C: suboptimal dose of laquinimod combined with MEF or EMF in MOG induced EAE; conditions: for Group Mean Score / Incidence % inhibition / Incidence Total / Mean Disease Duration / Mean Maximal Score / Mean Onset days / Mortality Total % / GMS Inhibition % / MMS Inhibition %: study interrupted on day 21; for GMS Inhibition % / MMS Inhibition %: vs vehicle
[3] = DMF 45 mg/kg gavage bid (90 mg/kg/day)
[4] = EMF 135 mg/kg gavage twice a day from Day 1
[5] = EMF 135 mg/kg gavage twice a day from Day 1, listed as EFM
[6] = laquinimod 5 mg/kg/day gavage (AM) from Day 1
[7] = laquinimod 25 mg/kg/day gavage (AM) from Day 1, positive control
[8] = laquinimod 5 mg/kg/day gavage qd
[9] = laquinimod 10 mg/kg/day gavage qd
[10] = laquinimod 25 mg/kg/day gavage qd
[11] = MEF 90 mg/kg gavage twice a day from Day 1

Question: For `COC(=O)/C=C/C(=O)OC` [DMF, dimethyl fumarate], which Incidence (MOG induced EAE [1]; [3]) is on record?
Answer: 13/15

Question: What about the “Mean Duration” value (MOG induced EAE [1]; [3]) of the same compound?
Answer: 13.4 ± 6.2 days

Question: What about the “Mean Onset” value (MOG induced EAE [1]; [3]) of the same compound?
Answer: 17.1 ± 6.3 days

Question: What about the Mortality (MOG induced EAE [1]; [3]) of the same compound?
Answer: 0/15

Question: And the “% Inhibition 2” value (MOG induced EAE [1]; [3])?
Answer: 25.7%

Question: What about the “% Inhibition 1” value (MOG induced EAE [1]; [3]) of the same compound?
Answer: 13.3%

Question: And the “% Inhibition 3” value (MOG induced EAE [1]; [3])?
Answer: 33.3%

Question: What about the GMS value (MOG induced EAE [1]; [3]) of the same compound?
Answer: 1.4 ± 0.9

Question: And the MMS value (MOG induced EAE [1]; [3])?
Answer: 2.6 ± 1.4

Question: And the “inhibition of disease severity” value (MOG-induced EAE; DMF 25 mg/kg oral QD alone)?
Answer: moderately effective

Question: How did the “Group Mean Score” value (MOG induced EAE [2]; [4]) turn out when `CCOC(=O)/C=C/C(=O)OC` [EMF, ethyl methyl fumarate] was run?
Answer: 0.51 ± 0.2

Question: And the Incidence % inhibition (MOG induced EAE [2]; [4])?
Answer: 46.6%

Question: What about the “Incidence Total” value (MOG induced EAE [2]; [4]) of the same compound?
Answer: 8/15

Question: And the “Mean Disease Duration” value (MOG induced EAE [2]; [4])?
Answer: 3.3 ± 0.9 days

Question: And the “Mean Maximal Score” value (MOG induced EAE [2]; [4])?
Answer: 1.2 ± 0.38

Question: What about the “Mean Onset days” value (MOG induced EAE [2]; [4]) of the same compound?
Answer: 18.4 ± 1.0 days

Question: And the “Mortality Total %” value (MOG induced EAE [2]; [4])?
Answer: 0%

Question: What about the Incidence % inhibition (MOG induced EAE [2]; [5]) of the same compound?
Answer: 46.7%

Question: And the “effectiveness in MOG induced EAE (conclusion)” value (MOG induced EAE [2]; EMF at 135 mg/kg BID alone)?
Answer: highly effective

Question: What about the “GMS Inhibition %” value (MOG induced EAE [2]; [4]) of the same compound?
Answer: 47.7%

Question: What about the “MMS Inhibition %” value (MOG induced EAE [2]; [4]) of the same compound?
Answer: 36.8%

Question: What about the “GMS Inhibition %” value (MOG induced EAE [2]; [5]) of the same compound?
Answer: 47.4%

Question: How did the “Group Mean Score” value (MOG induced EAE [2]; [6]) turn out when `CCN(C(=O)c1c(O)c2c(Cl)cccc2n(C)c1=O)c1ccccc1` [Laquinimod, laquinimod] was run?
Answer: 0.64 ± 0.2

Question: What about the Incidence % inhibition (MOG induced EAE [2]; [6]) of the same compound?
Answer: 46.7%

Question: What about the “Incidence Total” value (MOG induced EAE [2]; [6]) of the same compound?
Answer: 8/15

Question: What about the “Mean Disease Duration” value (MOG induced EAE [2]; [6]) of the same compound?
Answer: 4.0 ± 1.2 days

Question: And the “Mean Maximal Score” value (MOG induced EAE [2]; [6])?
Answer: 1.3 ± 0.4

Question: What about the “Mean Onset days” value (MOG induced EAE [2]; [6]) of the same compound?
Answer: 17.3 ± 1.24 days

Question: And the “Mortality Total %” value (MOG induced EAE [2]; [6])?
Answer: 0%

Question: What about the Incidence % inhibition (MOG induced EAE [2]; [7]) of the same compound?
Answer: 93.3%

Question: And the “Incidence Total” value (MOG induced EAE [2]; [7])?
Answer: 1/15

Question: What about the “Mean Disease Duration” value (MOG induced EAE [2]; [7]) of the same compound?
Answer: 0.3 ± 0.3 days

Question: What about the “Mean Maximal Score” value (MOG induced EAE [2]; [7]) of the same compound?
Answer: 0.1 ± 0.06

Question: And the “Mean Onset days” value (MOG induced EAE [2]; [7])?
Answer: 21.5 ± 0.5 days

Question: And the “Mortality Total %” value (MOG induced EAE [2]; [7])?
Answer: 0%

Question: And the “EAE clinical signs (conclusion)” value (MOG induced EAE [2]; laquinimod at 25 mg/kg)?
Answer: significantly ameliorated EAE clinical signs

Question: And the “efficacy in MOG-induced EAE (conclusion)” value (MOG induced EAE [2]; laquinimod at 5 and 25 mg/kg)?
Answer: dose-dependent efficacy

Question: What about the “GMS Inhibition %” value (MOG induced EAE [2]; [6]) of the same compound?
Answer: 34.0%

Question: And the “MMS Inhibition %” value (MOG induced EAE [2]; [6])?
Answer: 31.6%

Question: And the “GMS Inhibition %” value (MOG induced EAE [2]; [7])?
Answer: 97.9%

Question: What about the “MMS Inhibition %” value (MOG induced EAE [2]; [7]) of the same compound?
Answer: 94.7%

Question: And the “% Inhibition 2” value (MOG induced EAE [1]; [8])?
Answer: 40.0%

Question: And the “% Inhibition 2” value (MOG induced EAE [1]; [9])?
Answer: 82.9%

Question: What about the “% Inhibition 2” value (MOG induced EAE [1]; [10]) of the same compound?
Answer: 100.0%

Question: What about the “% Inhibition 1” value (MOG induced EAE [1]; [8]) of the same compound?
Answer: 33.3%

Question: What about the “% Inhibition 1” value (MOG induced EAE [1]; [9]) of the same compound?
Answer: 73.3%

Question: What about the “% Inhibition 1” value (MOG induced EAE [1]; [10]) of the same compound?
Answer: 100.0%

Question: What about the “% Inhibition 3” value (MOG induced EAE [1]; [8]) of the same compound?
Answer: 61.9%

Question: And the “% Inhibition 3” value (MOG induced EAE [1]; [9])?
Answer: 90.5%

Question: And the “% Inhibition 3” value (MOG induced EAE [1]; [10])?
Answer: 100%

Question: And the GMS value (MOG induced EAE [1]; [8])?
Answer: 0.8 ± 0.7

Question: What about the GMS value (MOG induced EAE [1]; [9]) of the same compound?
Answer: 0.2 ± 0.5

Question: What about the GMS value (MOG induced EAE [1]; [10]) of the same compound?
Answer: 0.0 ± 0.0

Question: What about the Incidence (MOG induced EAE [1]; [8]) of the same compound?
Answer: 10/15

Question: And the “Mean Duration” value (MOG induced EAE [1]; [8])?
Answer: 8.0 ± 6.2 days

Question: What about the “Mean Onset” value (MOG induced EAE [1]; [8]) of the same compound?
Answer: 22.7 ± 6.4 days

Question: What about the Mortality (MOG induced EAE [1]; [8]) of the same compound?
Answer: 0/15

Question: And the Incidence (MOG induced EAE [1]; [9])?
Answer: 4/15

Question: And the “Mean Duration” value (MOG induced EAE [1]; [9])?
Answer: 1.8 ± 3.7 days

Question: And the “Mean Onset” value (MOG induced EAE [1]; [9])?
Answer: 28.9 ± 3.8 days

Question: What about the Mortality (MOG induced EAE [1]; [9]) of the same compound?
Answer: 0/15

Question: And the Incidence (MOG induced EAE [1]; [10])?
Answer: 0/15

Question: And the “Mean Duration” value (MOG induced EAE [1]; [10])?
Answer: 0.0 ± 0.0 days

Question: What about the “Mean Onset” value (MOG induced EAE [1]; [10]) of the same compound?
Answer: 0.0 ± 0.0 days

Question: What about the Mortality (MOG induced EAE [1]; [10]) of the same compound?
Answer: 0/15

Question: And the MMS value (MOG induced EAE [1]; [8])?
Answer: 2.1 ± 1.7

Question: And the MMS value (MOG induced EAE [1]; [9])?
Answer: 0.6 ± 0.2

Question: And the MMS value (MOG induced EAE [1]; [10])?
Answer: 0.0 ± 0.0

Question: And the “inhibition of disease severity” value (MOG-induced EAE; laquinimod 0.06 mg/kg oral QD alone)?
Answer: moderately effective

Question: Which results are given for `CCOC(=O)/C=C/C(=O)O` [MEF, monoethyl fumarate]?
Answer: Group Mean Score (MOG induced EAE [2]; [11]): 1.23 ± 0.2; Incidence % inhibition (MOG induced EAE [2]; [11]): 20%; Incidence Total (MOG induced EAE [2]; [11]): 12/15; Mean Disease Duration (MOG induced EAE [2]; [11]): 7.1 ± 1.0 days; Mean Maximal Score (MOG induced EAE [2]; [11]): 2.3 ± 0.38; Mean Onset days (MOG induced EAE [2]; [11]): 14.7 ± 1.0 days; Mortality Total % (MOG induced EAE [2]; [11]): 0%; alleviation of EAE disease signs (conclusion) (MOG induced EAE [2]; MEF at 90 mg/kg): not effective; GMS Inhibition % (MOG induced EAE [2]; [11]): 26.8%; MMS Inhibition % (MOG induced EAE [2]; [11]): −21.1%; GMS Inhibition % (MOG induced EAE [2]; MEF 90 mg/kg gavage twice a day from Day 1, listed as Mono EF): −26.8%
